Values quoted from earlier work in patent US10058616B2, “Pharmaceutical compositions to reduce complications of ocular steroid” (TAIWAN LIPOSOME COMPANY, LTD., priority 2012, dated 2018).
Where two headings read alike, the source gives them in different places.

Compound: CC1(C)O[C@@H]2C[C@H]3[C@@H]4CCC5=CC(=O)C=C[C@]5(C)[C@@]4(F)[C@@H](O)C[C@]3(C)[C@]2(C(=O)CO)O1 [triamcinolone acetonide]
- progression of cataract, patients (patients; after intravitreal steroid injection): 22.72%
- incidence of increased IOP after intravitreal steroid injection (patients; at 3 months): 75%
- incidence of increased IOP after intravitreal steroid injection (patients; at 6 months): 47.05%
- incidence of increased IOP after intravitreal steroid injection (patients; at one month): 57.69%

Compound: dexamethasone sodium phosphate [Non-associated DSP]
- half-life in the vitreous humor: about 3.5 hours
